What was measured:
Test in all cases: NCI-60 SRB screen
Format in all cases: cell-based
SW-620 = test system: SW-620
SK-MEL-2 = test system: SK-MEL-2
SK-OV-3 = test system: SK-OV-3
HOP-92 = test system: HOP-92
SK-MEL-28 = test system: SK-MEL-28
RXF 393 = test system: RXF 393
BT-549 = test system: BT-549
MDA-MB-468 = test system: MDA-MB-468
OVCAR-4 = test system: OVCAR-4
NCI-H23 = test system: NCI-H23
PC-3 = test system: PC-3
SR = test system: SR
[1] = Homo sapiens, read-out: LC50 (the source's name)

COc1ccc2[nH]c(=O)c(/C=C/C(=O)c3ccccc3OC)cc2c1 [CTR-20, (E)-6-Methoxy-3-(3-(2-methoxyphenyl)-3-oxoprop-1-enyl) quinolin-2(1H)-one] gave a Log10GI50 (SW-620) of -6.47 Molar, a Log10LC50 (SW-620) of -4.31 Molar and a Log10TGI (SW-620) of -5.65 Molar. For the same compound, the TGI (SW-620) was 2.24E-6 Molar, the “Growth Percent” value (SW-620; 1.00E-5 Molar) was 8.40% and the GI50 (SW-620; Homo sapiens) was 335 nM. The LC50 (50% lethal concentration) (SW-620; Homo sapiens) was 49.4 µM, the “Percent Growth” value (SW-620; Log10 Concentration -4.0) was -58% and the “Percent Growth” value (SW-620; Log10 Concentration -5.0) was -31%. The “Percent Growth” value (SW-620; Log10 Concentration -6.0) was 17%, the “Percent Growth” value (SW-620; Log10 Concentration -7.0) was 87% and the “Percent Growth” value (SW-620; Log10 Concentration -8.0) was 98%. The Log10GI50 (SK-MEL-2) was -6.16 Molar, the Log10LC50 (SK-MEL-2) was -4.54 Molar and the Log10TGI (SK-MEL-2) was -5.36 Molar. For the same compound, the TGI (SK-MEL-2) was 4.39E-6 Molar, the “Growth Percent” value (SK-MEL-2; 1.00E-5 Molar) was -2.52% and the GI50 (SK-MEL-2; Homo sapiens) was 694 nM. The CC50 (SK-MEL-2; [1]) was 29.2 µM, the “Percent Growth” value (SK-MEL-2; Log10 Concentration -4.0) was -81% and the “Percent Growth” value (SK-MEL-2; Log10 Concentration -5.0) was -23%. For the same compound, the “Percent Growth” value (SK-MEL-2; Log10 Concentration -6.0) was 41%, the “Percent Growth” value (SK-MEL-2; Log10 Concentration -7.0) was 99% and the “Percent Growth” value (SK-MEL-2; Log10 Concentration -8.0) was 95%. For the same compound, the Log10GI50 (SK-OV-3) was -5.65 Molar, the Log10LC50 (SK-OV-3) was -4.44 Molar and the Log10TGI (SK-OV-3) was -4.89 Molar. The TGI (SK-OV-3) was 1.28E-5 Molar, the “Growth Percent” value (SK-OV-3; 1.00E-5 Molar) was 6.12% and the GI50 (SK-OV-3; Homo sapiens) was 2230 nM. For the same compound, the CC50 (SK-OV-3; [1]) was 36.2 µM, the “Percent Growth” value (SK-OV-3; Log10 Concentration -4.0) was -99% and the “Percent Growth” value (SK-OV-3; Log10 Concentration -5.0) was 12%. The “Percent Growth” value (SK-OV-3; Log10 Concentration -6.0) was 70%, the “Percent Growth” value (SK-OV-3; Log10 Concentration -7.0) was 99% and the “Percent Growth” value (SK-OV-3; Log10 Concentration -8.0) was 87%. The Log10GI50 (HOP-92) was -5.80 Molar, the Log10LC50 (HOP-92) was -4.57 Molar and the Log10TGI (HOP-92) was -5.21 Molar. For the same compound, the TGI (HOP-92) was 6.17E-6 Molar, the “Growth Percent” value (HOP-92; 1.00E-5 Molar) was -11.97% and the GI50 (HOP-92; Homo sapiens) was 1570 nM. For the same compound, the LC50 (HOP-92; Homo sapiens) was 27 µM, the “Percent Growth” value (HOP-92; Log10 Concentration -4.0) was -92% and the “Percent Growth” value (HOP-92; Log10 Concentration -5.0) was -18%. The “Percent Growth” value (HOP-92; Log10 Concentration -6.0) was 67%, the “Percent Growth” value (HOP-92; Log10 Concentration -7.0) was 111% and the “Percent Growth” value (HOP-92; Log10 Concentration -8.0) was 107%. The Log10GI50 (SK-MEL-28) was -5.82 Molar, the Log10LC50 (SK-MEL-28) was -4.54 Molar and the Log10TGI (SK-MEL-28) was -5.14 Molar. For the same compound, the TGI (SK-MEL-28) was 7.32E-6 Molar, the “Growth Percent” value (SK-MEL-28; 1.00E-5 Molar) was 50.45% and the GI50 (SK-MEL-28; Homo sapiens) was 1520 nM. For the same compound, the CC50 (SK-MEL-28; [1]) was 28.5 µM, the “Percent Growth” value (SK-MEL-28; Log10 Concentration -4.0) was -98% and the “Percent Growth” value (SK-MEL-28; Log10 Concentration -5.0) was -10%. The “Percent Growth” value (SK-MEL-28; Log10 Concentration -6.0) was 63%, the “Percent Growth” value (SK-MEL-28; Log10 Concentration -7.0) was 95% and the “Percent Growth” value (SK-MEL-28; Log10 Concentration -8.0) was 96%. It also gave a Log10GI50 (RXF 393) of -5.99 Molar, a Log10LC50 (RXF 393) of -5.19 Molar and a Log10TGI (RXF 393) of -5.59 Molar. For the same compound, the TGI (RXF 393) was 2.57E-6 Molar, the “Growth Percent” value (RXF 393; 1.00E-5 Molar) was -7.90% and the GI50 (RXF 393; Homo sapiens) was 1020 nM. For the same compound, the CC50 (RXF 393; [1]) was 6.48 µM, the “Percent Growth” value (RXF 393; Log10 Concentration -4.0) was -98% and the “Percent Growth” value (RXF 393; Log10 Concentration -5.0) was -74%. The “Percent Growth” value (RXF 393; Log10 Concentration -6.0) was 51%, the “Percent Growth” value (RXF 393; Log10 Concentration -7.0) was 99% and the “Percent Growth” value (RXF 393; Log10 Concentration -8.0) was 99%. The Log10GI50 (BT-549) was -6.41 Molar, the Log10LC50 (BT-549) was -4.72 Molar and the Log10TGI (BT-549) was -5.62 Molar. The TGI (BT-549) was 2.42E-6 Molar, the “Growth Percent” value (BT-549; 1.00E-5 Molar) was 18.91% and the GI50 (BT-549; Homo sapiens) was 387 nM. For the same compound, the CC50 (BT-549; [1]) was 19.2 µM, the “Percent Growth” value (BT-549; Log10 Concentration -4.0) was -97% and the “Percent Growth” value (BT-549; Log10 Concentration -5.0) was -32%. For the same compound, the “Percent Growth” value (BT-549; Log10 Concentration -6.0) was 20%, the “Percent Growth” value (BT-549; Log10 Concentration -7.0) was 93% and the “Percent Growth” value (BT-549; Log10 Concentration -8.0) was 91%. The Log10GI50 (MDA-MB-468) was -6.47 Molar, the Log10LC50 (MDA-MB-468) was -4.40 Molar and the Log10TGI (MDA-MB-468) was -5.78 Molar. The TGI (MDA-MB-468) was 1.65E-6 Molar, the “Growth Percent” value (MDA-MB-468; 1.00E-5 Molar) was 16.65% and the GI50 (MDA-MB-468; Homo sapiens) was 336 nM. For the same compound, the CC50 (MDA-MB-468; [1]) was 40.1 µM, the “Percent Growth” value (MDA-MB-468; Log10 Concentration -4.0) was -68% and the “Percent Growth” value (MDA-MB-468; Log10 Concentration -5.0) was -22%. The “Percent Growth” value (MDA-MB-468; Log10 Concentration -6.0) was 6%, the “Percent Growth” value (MDA-MB-468; Log10 Concentration -7.0) was 99% and the “Percent Growth” value (MDA-MB-468; Log10 Concentration -8.0) was 99%. The Log10GI50 (OVCAR-4) was -5.39 Molar, the Log10LC50 (OVCAR-4) was -4.11 Molar and the Log10TGI (OVCAR-4) was -4.63 Molar. For the same compound, the TGI (OVCAR-4) was 2.32E-5 Molar, the “Growth Percent” value (OVCAR-4; 1.00E-5 Molar) was 50.80% and the GI50 (OVCAR-4; Homo sapiens) was 4.07 µM. For the same compound, the CC50 (OVCAR-4; [1]) was 76.9 µM, the “Percent Growth” value (OVCAR-4; Log10 Concentration -4.0) was -61% and the “Percent Growth” value (OVCAR-4; Log10 Concentration -5.0) was 35%. The “Percent Growth” value (OVCAR-4; Log10 Concentration -6.0) was 73%, the “Percent Growth” value (OVCAR-4; Log10 Concentration -7.0) was 95% and the “Percent Growth” value (OVCAR-4; Log10 Concentration -8.0) was 94%. It also gave a Log10GI50 (NCI-H23) of -5.88 Molar, a Log10LC50 (NCI-H23) of -4.66 Molar and a Log10TGI (NCI-H23) of -5.41 Molar. For the same compound, the TGI (NCI-H23) was 3.93E-6 Molar, the “Growth Percent” value (NCI-H23; 1.00E-5 Molar) was 21.29% and the GI50 (NCI-H23; Homo sapiens) was 1330 nM. The CC50 (NCI-H23; [1]) was 21.6 µM, the “Percent Growth” value (NCI-H23; Log10 Concentration -4.0) was -64% and the “Percent Growth” value (NCI-H23; Log10 Concentration -5.0) was -43%. The “Percent Growth” value (NCI-H23; Log10 Concentration -6.0) was 63%, the “Percent Growth” value (NCI-H23; Log10 Concentration -7.0) was 87% and the “Percent Growth” value (NCI-H23; Log10 Concentration -8.0) was 88%. It also gave a Log10GI50 (PC-3) of -6.07 Molar, a Log10LC50 (PC-3) of -4.59 Molar and a Log10TGI (PC-3) of -5.43 Molar. The TGI (PC-3) was 3.75E-6 Molar, the “Growth Percent” value (PC-3; 1.00E-5 Molar) was 22.06% and the GI50 (PC-3; Homo sapiens) was 842 nM. The CC50 (PC-3; [1]) was 25.9 µM, the “Percent Growth” value (PC-3; Log10 Concentration -4.0) was -73% and the “Percent Growth” value (PC-3; Log10 Concentration -5.0) was -34%. For the same compound, the “Percent Growth” value (PC-3; Log10 Concentration -6.0) was 46%, the “Percent Growth” value (PC-3; Log10 Concentration -7.0) was 102% and the “Percent Growth” value (PC-3; Log10 Concentration -8.0) was 104%. For the same compound, the Log10GI50 (SR) was -7.18 Molar, the Log10LC50 (SR) was over -4.00 Molar and the Log10TGI (SR) was -4.99 Molar. The TGI (SR) was 1.03E-5 Molar, the “Growth Percent” value (SR; 1.00E-5 Molar) was 2.69% and the GI50 (SR; Homo sapiens) was 65.6 nM. The LC50 (50% lethal concentration) (SR; Homo sapiens) was over 100 µM, the “Percent Growth” value (SR; Log10 Concentration -4.0) was -13% and the “Percent Growth” value (SR; Log10 Concentration -6.0) was 21%. The “Percent Growth” value (SR; Log10 Concentration -7.0) was 41% and the “Percent Growth” value (SR; Log10 Concentration -8.0) was 92%.

From publication PMC5578999, “Novel quinolone chalcones targeting colchicine-binding pocket kill multidrug-resistant cancer cells by inhibiting tubulin activity and MRP1 function” (Scientific Reports, 2017)
